Each structure is given as a SMILES string.

Usually IC50 stands for the concentration needed to halve the response being measured. A high value points to weaker potency in that assay.

For the experiment, the target named is T1, Induced myeloid leukemia cell differentiation protein Mcl-1 [K194A,K197A,R201A] (Homo sapiens, UniProt Q07820, K194A/K197A/R201A).
T1 construct: gene MCL1
T1 sequence (Q07820 whole entry K194A/K197A/R201A, looked up): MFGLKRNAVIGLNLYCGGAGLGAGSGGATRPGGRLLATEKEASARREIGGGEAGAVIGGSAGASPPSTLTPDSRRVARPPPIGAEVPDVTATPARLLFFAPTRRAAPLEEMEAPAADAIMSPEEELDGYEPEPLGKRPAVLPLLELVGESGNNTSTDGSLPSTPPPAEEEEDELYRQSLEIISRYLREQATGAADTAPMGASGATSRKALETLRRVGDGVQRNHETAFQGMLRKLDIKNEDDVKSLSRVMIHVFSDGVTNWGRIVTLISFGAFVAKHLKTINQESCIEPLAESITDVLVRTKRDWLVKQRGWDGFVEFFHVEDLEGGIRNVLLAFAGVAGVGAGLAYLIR
Description: Protein-Protein Interaction Assay: MCL-1/Noxa BH3 Peptide (MCL-1 Assay).
Description: The dose-dependent inhibition by the compounds described in this invention of the interaction between MCL-1 and the BH3 domain of Noxa (both human) was determined using a steady state binding competition assay with time-resolved fluorescence energy transfer (TR-FRET) readout. […] The MBP-MCL-1 was purchased from Beryllium (Bedford, Mass., USA). […] The Noxa BH3-derived peptide can be obtained from e.g. Biosyntan (Berlin, Germany).
Compound `CCc1c2c(nn1C)C(CCC1CCOCC1)OCCCCn1c(C(=O)O)c(CCCOc3cccc4cc(F)ccc34)c3ccc(Cl)c-2c31` (racemic) [US11440923, Example 60] returned an IC50 of 0.69 nM.

Turning to `CCc1c2c(nn1C)C1CCCCN1CCCCn1c(C(=O)O)c(CCCOc3cccc4ccccc34)c3ccc(Cl)c-2c31` (racemic) [US11440923, Example 102], the IC50 was determined as 0.94 nM.

`CCc1c2c(nn1C)C(CCN1CCOCC1)OCCCCn1c(C(=O)O)c(CCCOc3cccc4cc(F)ccc34)c3ccc(Cl)c-2c31` (single isomer, unassigned) [US11440923, Example 23] showed an IC50 of 0.63 nM.

The compound `CCc1c2c(nn1C)C(CCC1CCOCC1)OCCCCn1c(C(=O)O)c(CCCOc3cccc4cc(F)ccc34)c3ccc(Cl)c-2c31` (single isomer, unassigned) [US11440923, Example 63] gave a half-inhibitory concentration (IC50) of 0.88 nM.

`CCc1c2c(nn1C)C(CCN1CC(F)(F)C1)OCCCCn1c(C(=O)O)c(CCCOc3cccc4cc(F)ccc34)c3ccc(Cl)c-2c31` (single isomer, unassigned) [US11440923, Example 78] had an IC50 of 0.42 nM. This IC50 is about 2.1-fold lower than that of the compound before.

As for `CCC1OCCCCn2c(C(=O)O)c(CCCOc3cccc4ccccc34)c3ccc(Cl)c(c32)-c2c1nn(C)c2C` (single isomer, unassigned; form 1) [US11440923, Example 29], the IC50 was 1 nM. Against the preceding compound, the IC50 is about 2.4-fold higher.

In the case of `CCc1c2c(nn1C)C(C(F)(F)F)OCCCCn1c(C(=O)O)c(CCCOc3cccc4ccccc34)c3ccc(Cl)c-2c31` (single isomer, unassigned; form 1) [US11440923, Example 33], the IC50 came to 2.1 nM. Compared with the last compound, the IC50 is about 2.1-fold higher.

`Cc1c2c(nn1C)C(C1CC1)OCCCCn1c(C(=O)O)c(CCCOc3cccc4ccccc34)c3ccc(Cl)c-2c31` (single isomer, unassigned; form 1) [US11440923, Example 35] showed an IC50 of 0.73 nM.

`CCc1c2c(nn1C)C(C1CC1)OCCCCn1c(C(=O)O)c(CCCOc3cccc4cc(F)ccc34)c3ccc(Cl)c-2c31` (single isomer, unassigned; form 1) [US11440923, Example 39] displayed an IC50 of 0.72 nM. The IC50 values of the last two compounds are within 1.5-fold of each other.

As to `CCc1c2c(nn1C)C(CCOC)OCCCCn1c(C(=O)O)c(CCCOc3cccc4cc(F)ccc34)c3ccc(Cl)c-2c31` (single isomer, unassigned; form 1) [US11440923, Example 42], half-maximal inhibition (IC50) required 0.33 nM.

In the case of `CCc1c2c(nn1C)C(CC(C)(C)O)OCCCCn1c(C(=O)O)c(CCCOc3cccc4cc(F)ccc34)c3ccc(Cl)c-2c31` (single isomer, unassigned; form 1) [US11440923, Example 53], the IC50 is 0.41 nM.

Compound `CCc1c2c(nn1C)C(CCC(C)(C)O)OCCCCn1c(C(=O)O)c(CCCOc3cccc4cc(F)ccc34)c3ccc(Cl)c-2c31` (single isomer, unassigned; form 1) [US11440923, Example 75] had an IC50 of 0.37 nM.

Turning to `CCC1OCCCCn2c(C(=O)O)c(CCCOc3cccc4ccccc34)c3ccc(Cl)c(c32)-c2c1nn(C)c2C` (single isomer, unassigned; form 2) [US11440923, Example 30], the IC50 amounted to 200 nM. Against the preceding compound, the IC50 is about 540-fold higher.

In turn, `CCc1c2c(nn1C)C(C(F)(F)F)OCCCCn1c(C(=O)O)c(CCCOc3cccc4ccccc34)c3ccc(Cl)c-2c31` (single isomer, unassigned; form 2) [US11440923, Example 34] had an IC50 of 370 nM.

With `Cc1c2c(nn1C)C(C1CC1)OCCCCn1c(C(=O)O)c(CCCOc3cccc4ccccc34)c3ccc(Cl)c-2c31` (single isomer, unassigned; form 2) [US11440923, Example 36], the IC50 is 280 nM.

On to `CCc1c2c(nn1C)C(C1CC1)OCCCCn1c(C(=O)O)c(CCCOc3cccc4cc(F)ccc34)c3ccc(Cl)c-2c31` (single isomer, unassigned; form 2) [US11440923, Example 40], for which the IC50 came to 48 nM.

For the compound `CCc1c2c(nn1C)C(CCOC)OCCCCn1c(C(=O)O)c(CCCOc3cccc4cc(F)ccc34)c3ccc(Cl)c-2c31` (single isomer, unassigned; form 2) [US11440923, Example 43], 88 nM corresponded to half-maximal inhibition (IC50).

The compound `CCc1c2c(nn1C)C(CC(C)(C)O)OCCCCn1c(C(=O)O)c(CCCOc3cccc4cc(F)ccc34)c3ccc(Cl)c-2c31` (single isomer, unassigned; form 2) [US11440923, Example 54] returned an IC50 of 47 nM.

Turning to `CCc1c2c(nn1C)C(CCC(C)(C)O)OCCCCn1c(C(=O)O)c(CCCOc3cccc4cc(F)ccc34)c3ccc(Cl)c-2c31` (single isomer, unassigned; form 2) [US11440923, Example 76], the IC50 was 90 nM.

Compound `Cc1c2c(nn1C)C(CCN1CCOCC1)OCCCCn1c(C(=O)O)c(CCCOc3cccc4cc(F)ccc34)c3ccc(Cl)c-2c31` (configuration not stated) [US11440923, Example 16] came in with an IC50 of 1.2 nM.

`Cc1c2c(nn1C)C(CCN1CCOCC1)OCCCCn1c(C(=O)O)c(CCCOc3cccc4cc(F)ccc34)c3ccc(F)c-2c31` (configuration not stated) [US11440923, Example 19] had an IC50 of 0.79 nM.

The compound `CCc1c2c(nn1C)[C@@H](CCN1CCOCC1)OCCCCn1c(C(=O)O)c(CCCOc3cccc4cc(F)ccc34)c3ccc(Cl)c-2c31` [US11440923, Example 48] came in with an IC50 of 3.6 nM.

The record behind these values is BindingDB's records for patent US11440923 (2022).
